{"source": "ChEMBL document CHEMBL1153652", "about": "“Synthesis and biological activity of modified enediyne chemotypes” (Bioorg Med Chem Lett, 1994)", "key": {"[1]": {"test_system": "Nucleic Acid", "assay": "In vitro ability to cleave DNA using supercoiled pM2 DNA with beta-mercaptoethanol at drug concentrations of 2E-5; Greater activity", "assay_type": "functional"}, "[2]": {"test_system": "Nucleic Acid", "assay": "In vitro DNA cleaving activity which induce cell filamentation was evaluated by inducement of the SOS response at a dose of 200 ug/ml.", "assay_type": "functional"}, "[3]": {"test_system": "Mus musculus", "assay": "In vivo relative median survival time of drug treated and control mice in murine Madison 109 (M109) lung carcinoma cells at 64 mg/kg/inj.", "assay_type": "functional"}, "[4]": {"test_system": "Nucleic Acid", "assay": "In vitro DNA cleaving activity which induce cell filamentation was evaluated by inducement of the SOS response at a dose of 40 ug/ml.", "assay_type": "functional"}, "[5]": {"test_system": "Nucleic Acid", "assay": "In vitro ability to cleave DNA using supercoiled pM2 DNA without beta-mercaptoethanol at drug concentrations of 2E-5; Greater activity", "assay_type": "functional"}, "[6]": {"test_system": "HCT-116", "assay": "Inhibitory concentration was determined for cytotoxicity in HCT116 human colon cancer cell line.", "assay_type": "functional, cell-based"}, "[7]": {"test_system": "Nucleic Acid", "assay": "In vitro DNA cleaving activity which induce cell filamentation was evaluated by inducement of the SOS response at a dose of 1000 ug/ml.", "assay_type": "functional"}, "[8]": {"test_system": "HCT-116", "assay": "Inhibitory concentration was determined for cytotoxicity in HCT116 human colon cancer cell line", "assay_type": "functional, cell-based"}, "[9]": {"test_system": "Nucleic Acid", "assay": "In vitro ability to cleave DNA using supercoiled pM2 DNA without beta-mercaptoethanol at a drug concentration of 2E-5; Greater activity", "assay_type": "functional"}, "[10]": {"test_system": "Nucleic Acid", "assay": "In vitro ability to cleave DNA using supercoiled pM2 DNA with beta-mercaptoethanol at a drug concentration of 2E-5; Greater activity", "assay_type": "functional"}, "[11]": {"test_system": "Mus musculus", "assay": "In vivo relative median survival time of drug treated and control mice in murine Madison 109 (M109) lung carcinoma cells at 16 mg/kg/inj.", "assay_type": "functional"}}}
{"smiles": "O=C1C2=CCCC1(O)C#Cc1ccccc1C#C[C@H]2O", "note": "(stereo partly specified)", "values": [{"measurement": "DNA cleavage", "setting": "[1]", "value": "Greater activity"}, {"measurement": "Area", "setting": "[2]", "value": 0, "unit": "mm²"}, {"measurement": "T/C", "setting": "[3]", "value": 107, "unit": "%"}, {"measurement": "Area", "setting": "[4]", "value": 0, "unit": "mm²"}, {"measurement": "DNA cleavage", "setting": "[5]", "value": "Greater activity"}, {"measurement": "IC50", "setting": "[6]", "value": 1.8, "unit": "µM"}, {"measurement": "Area", "setting": "[7]", "value": 0, "unit": "mm²"}]}
{"smiles": "O=C1C2=CCCC1(O)C#CC1=C(C#C[C@H]2O)CCC1", "note": "(stereo partly specified)", "values": [{"measurement": "DNA cleavage", "setting": "[1]", "value": "Greater activity"}, {"measurement": "Area", "setting": "[2]", "value": 75, "unit": "mm²"}, {"measurement": "T/C", "setting": "[3]", "value": 147, "unit": "%"}, {"measurement": "Area", "setting": "[4]", "value": 0, "unit": "mm²"}, {"measurement": "DNA cleavage", "setting": "[5]", "value": "Greater activity"}, {"measurement": "IC50", "setting": "[8]", "value": 2.2, "unit": "µM"}, {"measurement": "Area", "setting": "[7]", "value": 162, "unit": "mm²"}]}
{"smiles": "O=C1C2=CCCC1(O)C#C/C=C\\C#C[C@H]2O", "note": "(stereo partly specified)", "values": [{"measurement": "Area", "setting": "[2]", "value": 954, "unit": "mm²"}, {"measurement": "Area", "setting": "[4]", "value": 427, "unit": "mm²"}, {"measurement": "IC50", "setting": "[6]", "value": 0.1, "unit": "µM"}, {"measurement": "Area", "setting": "[7]", "value": 1620, "unit": "mm²"}, {"measurement": "DNA cleavage", "setting": "[9]", "value": "Greater activity"}, {"measurement": "DNA cleavage", "setting": "[10]", "value": "Greater activity"}, {"measurement": "T/C", "setting": "[11]", "value": 144, "unit": "%"}]}
